Laboratory results: patent publication US10087225B2, “Formulation of MK2 inhibitor peptides” (MOERAE MATRIX, INC., priority 2015, dated 2018)
Peptide text beside a SMILES is read from it.

Tests used:
HCAVSMCs [1] = test: Cytosolic vs. organelle bound peptide by digitonin semi-permeabilization; format: cell-based, human; conditions: Bafilomycin treatment
Description: In order to quantify the cytosolic bioavailability of the MK2i and HSP20 peptides a method to separate cytosolic and organelle bound (i.e. endosomal, lysosomal, golgi, etc.) peptide was adapted from the methods developed by Liu et a140. The procedure was optimized for this experiment based upon LDH release from HCAVSMCs treated with varying concentrations of digitonin (Calbiochem) in buffer (150 mM NaCl, 0.2 mM EDTA, 20 mM HEPES-NaOH (pH 7.4), 2 mM DTT and 2 mM MgCL2) on ice for 10 mins on a rotary shaker operating at 100 RPM (supplementary FIG. 3). A concentration of 25 μg/mL was then chosen as the optimal digitonin concentration for selective semi-permeabilization of the HCAVSMC membrane and subsequently used for the analysis of intracellular peptide distribution.
To quantify intracellular distribution of the MK2i and p-HSP20 peptides, HCAVSMCs were seeded into a 96 well plate at a density of 20,000 cells/cm2 and allowed to adhere overnight in complete growth medium. A portion of the cells were pretreated with 500 nM Bafilomycin A1 (Sigma) for 30 minutes, and the Bafilomycin was included in subsequent peptide/NP treatment and in the post-treatment incubation phase to inhibit endosomal acidification. […] Treatments were removed and cells were incubated in fresh medium with or without 500 nM Bafilomycin A1 for 6 hours. […]

[2] = test system: human saphenous vein (HSV); test: Inhibition of phenylephrine-induced HSV contraction; conditions: 2 h treatment
Description: Prior to experiments, HSV viability was confirmed. HSV rings were weighed and their lengths recorded. […] The rings were stretched and the length progressively adjusted until maximal tension was obtained 49. Normalized reactivity was obtained by determining the passive length-tension relationship for each vessel segment. Rings were maintained at a resting tension of 1 g, which produces maximal responses to contractile agonists, as previously determined, and equilibrated for 2 h in buffer. Force measurements were obtained using a Radnoti Glass Technology (Monrovia, Calif.) force transducer (159901A) interfaced with a Powerlab data acquisition system and LabChart software (AD Instruments, Colorado Springs, Colo.).
HSV rings were initially isometrically contracted with 110 mM KCl (with equimolar replacement of NaCl in bicarbonate buffer), and the generated force was measured. 110 mM KCl causes membrane depolarization, leading to contraction of vessels containing functionally viable smooth muscle. […]
Viable HSV rings were washed, allowed to equilibrate in bicarbonate solution for 30 min, and then contracted with phenylephrine (PE, 1 μM). […] Treated HSV rings were then contracted with the same doses of PE, and the forces generated were again recorded. […]

HCAVSMCs [3] = conditions: human, 72 h
Description: For MK2i-NP and HSP20-NP studies, An amine-reactive Alexa-488 succinimidyl ester (Life Technologies) was dissolved in DMSO and mixed at a 1 to 3 molar ratio with the MK2i or p-HSP20 peptide in 100 mM sodium bicarbonate buffer (pH=8.3) and allowed to react for 3 hours. Unreacted fluorophore and organic solvent were removed using a PD-10 miditrap G-10 desalting column, and the fluorescently labeled MK2i and p-HSP20 peptides were lyophilized. […] Similarly, PPAA was mixed with fluorescently labeled p-HSP20 at a CR of [NH3^+]/[COO^−]=1:3 and syringe filtered through a 0.45 μm PTFE filter to form fluorescent HSP20-NPs. HCAVSMCs were grown to 80-90% confluence, harvested, and seeded at 20,000 cells/well in a 24 well plate and allowed to adhere overnight. […] Following treatment, cells were washed 2× in PBS, and either immediately harvested or incubated in complete growth media for an additional 72 hours. Cells were harvested with 0.05% trypsin-EDTA, centrifuged, and suspended in 0.1% Trypan blue in PBS (−/−) for analysis on a FACSCalibur flow cytometer (Becton Dickinson) with BD CellQuest™ Pro software (V 5.2). Data was exported and analyzed with FlowJo software (V 7.6.4). All samples were run in triplicate.

in vitro = conditions: human, HCAVSMCs
Description: 200 μL of cell suspension (at 10,000 cells/well) were seeded onto 96-well plates to yield an approximate 70% confluence per well. Cells were allowed to adhere to the plate overnight. […] Treatments were subsequently removed and the cells were cultured in fresh complete growth medium for 24 hours. Cells were then washed 2× with PBS +/+ and cell viability was then determined by a CytoTox-ONE Homogenous Membrane Integrity assay (Promega) according to the manufacturer's protocol. Briefly, 100 μL of Ambion KDalert Lysis Buffer was added to each well, and then 100 μL of freshly prepared CytoTox-ONE reagent was added to each well. After 10 minutes of incubation, 50 μL of stop solution was added, and the fluorescence of each well (kλex=560 nm, λem, =590 nm) was determined with a TECAN Infinite M1000 Pro plate reader.

- cytosolic fraction of internalized free peptide (HCAVSMCs [1]): 7.36%±8.28%
- intracellular peptide retention (% of initial uptake remaining) (HCAVSMCs [3]): 35%
SMILES: CC(C)C[C@H](NC(=O)CNC(=O)[C@@H]1CCCN1C(=O)[C@H](CC(C)C)NC(=O)[C@@H]1CCCN1C(=O)[C@H](C)NC(=O)[C@H](COP(=O)(O)O)NC(=O)[C@H](C)NC(=O)[C@H](CCCNC(=N)N)NC(=O)[C@H](CCCNC(=N)N)NC(=O)[C@H](CC(C)C)NC(=O)[C@H](Cc1c[nH]c2ccccc12)NC(=O)[C@H](C)NC(=O)[C@H](CCCNC(=N)N)NC(=O)[C@H](C)NC(=O)[C@H](CCC(N)=O)NC(=O)[C@H](CCCNC(=N)N)NC(=O)[C@H](C)NC(=O)[C@H](C)NC(=O)[C@H](C)NC(=O)[C@H](CCCNC(=N)N)NC(=O)[C@H](C)NC(=O)[C@@H](N)Cc1ccc(O)cc1)C(=O)N[C@@H](CCCCN)C(=O)O [p-HSP20] (HELM PEPTIDE1{Y.A.R.A.A.A.R.Q.A.R.A.W.L.R.R.A.[O=C([C@H](COP(=O)(O)O)N[*:1])[*:2]].A.P.L.P.G.L.K}$$$$V2.0; N-terminus and C-terminus assumed)
- PE-induced HSV contraction [2]: significantly inhibited
- viability at 2 h, 500 µM (in vitro): 77%
